# Reference: patent US20120258975A1, “Potent Small Molecule Inhibitors of Autophagy, and Methods of Use Thereof” (Shanghai Institute of Organic Chemistry, priority 2009, published 2012)
# Key:
# PI3P (FYVE-RFP) = test: FYVE-RFP spots in H4-FYVE cells; type: cell-based; conditions: 10 μM; for levels of FYVE-RFP spots: basal and rapamycin treated H4 cells
# Procedure: H4-FYVE cells were treated with DMSO (0.1%), MBCQ (10 μM) or C43 (spautin) (10 μM) for indicated time. A, The images were analyzed by fluorescence microscopy and quantified by HCS after fixing in 4% paraformaldehyde and stained with 4,6-diamidino-2-phenylindole (DAPI, 3 μg/mL). Images of 1000 cells for each compound treatment were analyzed by ArrayScan HCS 4.0 Reader with a 20× objective (Cellomics, Pittsburgh, Pa.). B, H4-FYVE cells were treated with DMSO (0.1%), RAPA (0.2 μM) alone, MBCQ (10 μM) or C43 (spautin) (10 μM) with or without RAPA (0.2 uM) for 8 h. The cell lysates were collected for western blotting using anti-RFP and anti-tubulin as a loading control.
# The levels of PtdIns3P (PI3P) are known to play a critical role in mediating autophagy (Levine, B., and Klionsky, D. J. (2004). Development by self-digestion: molecular mechanisms and biological functions of autophagy. Dev Cell 6, 463-477). To ask if MBCQ has an effect on PI3P, H4 cells expressing FYVE-RFP were used. FYVE binds specifically to PI3P and is widely used as a marker for cellular levels for PI3P (Gaullier, J. M., Simonsen, A., D'Arrigo, A., Bremnes, B., Stenmark, H., and Aasland, R. (1998). FYVE fingers bind PtdIns(3)P. Nature 394, 432-433).
# MEF cells = test: Electron microscopy of MEF cells; type: cell-based, mouse; conditions: rapamycin (0.2 μM) plus compound, 4 h
# Procedure: FIG. 5 depicts results related to showing that active derivatives of MBCQ reduce the levels of LC3II in MEF cells. […] The cell lysates were collected for western blotting using anti-LC3 antibody. B, Electron microscopy confirmation of the autophagy inhibitory effects of C43 (spautin) on MEF cells. MEF cells were treated with vehicle control (1‰ DMSO), and other indicated compounds for 4 h. Rapamycin (0.2 μM) and C43 (spautin) (10 μM). Then the cells were fixed with glutaraldehyde and prepared the sample for EM assay. Bar, 1:11,000. Arrows indicate double and multi-membrane autophagosomic vesicles. N: nucleus.
# The effect of C29 and C43 on autophagy was further confirmed by electron microscopy. In rapamycin treated MEF cells, numerous autophagosome vesicles with double membranes were observed, as well as many vesicles with multi-membrane as expected (FIG. 5B).
# [1] = tested on: USP3, USP10, USP13, USP16, USP18; test: USP protein levels (western blot)
# Procedure: H4 cells were transfected with indicated siRNAs for 72 hrs or treated with rapamycin (0.2 μM) or spautin (10 μM) for 4 hrs, and non-target siRNA (N. T. siRNA) was used as negative control. The cell lysates were harvested and analyzed by western blotting using (Left): antibodies specific for the indicated proteins. Anti-α-tubulin was used as loading controls.
# LC3II in liver = test: Autophagy in liver of rapamycin injected mice; type: in vivo; conditions: rapamycin 10 mg/kg, 40 mg/kg intraperitoneally every hour for 4 h
# Procedure: FIG. 13 depicts results showing the effect of MBCQ and derivatives in vivo. (A) Mice were injected with rapamycin (10 mg/kg) alone as a positive control, or with C43 or MBCQ (40 mg/kg) intraperitoneally every hour for 4 h and then sacrificed at 5 th h. The autophagy levels in liver were analyzed by western blotting using anti-LC3 antibody. (B) C43 reduces the levels of autophagy induced by cerulein. Rats were injected intraperitoneally with cerulein (50 μg/kg) alone or with C43 (40 mg/kg) hourly for 4 times. The rats were sacrificed at one h after the last injection and the pancreas were isolated for western blotting analysis using anti-LC3 and anti-tubulin (as a control).
# To begin to test the effect of MBCQ derivatives in vivo, the ability of MBCQ derivatives to inhibit autophagy in rapamycin injected mice was investigated. Mice were injected with rapamycin (10 mg/kg) alone as a positive control, or with C43 or MBCQ (40 mg/kg) intraperitoneally every hour for 4 h and then sacrificed at the fifth hour. The autophagy levels in liver were then analyzed by western blotting using anti-LC3 antibody. […] Thus, it was determined that C43 and MBCQ are both active in vivo in inhibiting autophagy.
# LC3II = test: Endogenous LC3II western blot in H4-LC3, 293T and MEF cells; type: cell-based; conditions: MBCQ and rapamycin co-treated versus rapamycin alone
# Procedure: To confirm the inhibition of autophagy by MBCQ, H4-LC3 cells, 293T cells and mouse embryonic fibroblast cells were treated with MBCQ and the levels of endogenous LC3II were measured by western blot.
# [2] = tested on: ubiquitin-proteasomal degradation pathway; test: Proteasomal degradation pathway (pEGFP-CL1, polyubiquitination); type: cell-based
# Procedure: In addition, the effect of MBCQ on proteasomal degradation pathway using pEGFP-CL1, a GFP fusion with a short-lived peptide was determined (Bence, N. F., Sampat, R. M., and Kopito, R. R. (2001). Impairment of the ubiquitin-proteasome system by protein aggregation. Science 292, 1552-1555).
# [3] = tested on: major intracellular organelles; test: Markers of intracellular organelles; type: cell-based
# Procedure: The effects of MBCQ on early endosomes using immunostaining of EEA1 as a marker, lysosomes using immunostaining of lamp2 as a marker or lysotracker, trans-Golgi using GalT-YFP as a marker was determined. No effect of MBCQ was detected in any of these experiments.
# Vps34 complex = biological target: T1, Vps34 complex (Homo sapiens, UniProt Q8NEB9); test: Vps34 complex kinase assay (PtdIns phosphorylation, TLC); type: biochemical; conditions: immunoprecipitated HA-Vps34 complex from 293T; wortmannin 10 uM
# T1 construct: expressed in transfected cells; host or cells: 293T
# T1 sequence (Q8NEB9 whole entry): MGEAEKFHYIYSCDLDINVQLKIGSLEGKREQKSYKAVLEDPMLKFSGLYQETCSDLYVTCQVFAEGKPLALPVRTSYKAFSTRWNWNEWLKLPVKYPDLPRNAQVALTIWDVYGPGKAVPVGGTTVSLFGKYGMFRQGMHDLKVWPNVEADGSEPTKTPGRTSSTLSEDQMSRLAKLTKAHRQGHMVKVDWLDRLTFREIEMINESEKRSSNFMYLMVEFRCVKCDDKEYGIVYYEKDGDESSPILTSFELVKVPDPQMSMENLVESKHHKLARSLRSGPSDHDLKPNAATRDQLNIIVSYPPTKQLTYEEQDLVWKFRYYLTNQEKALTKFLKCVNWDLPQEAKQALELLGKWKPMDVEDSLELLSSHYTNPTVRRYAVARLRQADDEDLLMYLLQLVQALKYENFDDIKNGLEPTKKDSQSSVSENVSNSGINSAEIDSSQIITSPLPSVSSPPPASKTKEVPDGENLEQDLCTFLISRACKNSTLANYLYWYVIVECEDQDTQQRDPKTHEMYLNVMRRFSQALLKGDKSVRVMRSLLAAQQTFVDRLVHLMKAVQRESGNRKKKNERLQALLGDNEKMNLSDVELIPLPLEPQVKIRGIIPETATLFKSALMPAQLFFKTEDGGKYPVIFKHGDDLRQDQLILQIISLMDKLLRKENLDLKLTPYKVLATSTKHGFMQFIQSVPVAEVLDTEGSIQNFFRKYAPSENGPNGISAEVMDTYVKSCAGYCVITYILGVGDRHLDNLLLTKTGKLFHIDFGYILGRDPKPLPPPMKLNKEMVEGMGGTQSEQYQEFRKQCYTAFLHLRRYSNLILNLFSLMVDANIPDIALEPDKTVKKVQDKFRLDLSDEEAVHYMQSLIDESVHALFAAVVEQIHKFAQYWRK
# T1 sequence (Q14457 whole entry partner): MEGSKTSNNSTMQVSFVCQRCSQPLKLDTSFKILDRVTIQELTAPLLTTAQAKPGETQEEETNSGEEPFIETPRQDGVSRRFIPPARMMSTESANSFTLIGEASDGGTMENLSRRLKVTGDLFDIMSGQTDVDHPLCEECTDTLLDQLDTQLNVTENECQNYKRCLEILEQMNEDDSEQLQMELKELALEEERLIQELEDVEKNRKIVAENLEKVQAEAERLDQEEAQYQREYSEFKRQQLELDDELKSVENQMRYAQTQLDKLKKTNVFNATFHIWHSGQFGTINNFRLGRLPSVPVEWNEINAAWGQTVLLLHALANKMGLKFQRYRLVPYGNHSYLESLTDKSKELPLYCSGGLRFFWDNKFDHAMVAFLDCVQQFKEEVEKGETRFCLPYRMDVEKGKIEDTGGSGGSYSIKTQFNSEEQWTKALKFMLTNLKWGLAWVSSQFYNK
# [4] = tested on: LC3-GFP (H4-LC3-GFP cells); test: Starvation induced autophagy in H4-LC3-GFP cells; type: cell-based; conditions: Hanks buffer 1 h; MBCQ 5 μM, 3-MA 10 mM, wortmannin 0.1 μM
# Description: FIG. 2 depicts results relating to MBCQ inhibition of autophagy induced by starvation. Quantitative measurement of LC3-GFP spot number per cell (a), spot size per cell (b) and spot intensity per cell (c) using HCS and expressed as % of control.
Structure (SMILES),protein levels of FYVE-RFP by western blotting (PI3P (FYVE-RFP)),levels of FYVE-RFP spots (PI3P (FYVE-RFP)),autophagosomes (MEF cells),levels of USP13 and USP10 ([1]; 293T cells and Bcap-37 cells),levels of USP44 ([1]; 293T cells and Bcap-37 cells),"levels of USP3, USP10, USP13, USP16 and USP18 ([1]; H4 cells, 10 μM, 4 hrs)",levels of LC3II in liver (LC3II in liver),levels of LC3II (LC3II),general levels of polyubiquitination [2],levels of pEGFP-CL1 [2],"early endosomes (EEA1), lysosomes (lamp2, lysotracker), trans-Golgi (GalT-YFP) [3]",phosphorylation of PtdIns by Vps34 complex (Vps34 complex),"starvation induced autophagy (LC3-GFP spot number, size, intensity) [4]"
"Fc1ccc(CNc2ncnc3ccc(F)cc23)cc1 [C43, 6-fluoro-N-(4-fluorobenzyl)quinazolin-4-amine]",no effect on the protein levels of FYVE-RFP,reduce FYVE-RFP spots,autophagosomes are largely absent,reduce the levels of USP13 and USP10,little effect,reduced the levels of these five USPs,significantly reduced the levels of LC3II,–,–,–,–,–,–
Clc1ccc2ncnc(NCc3ccc4c(c3)OCO4)c2c1 [MBCQ],–,rapidly and effectively reduced the levels of FYVE-RFP spots,–,–,–,–,significantly reduced the levels of LC3II,consistently reduced,no effect on the general levels of polyubiquitination,does not affect the levels of pEGFP-CL1,No effect,not a direct inhibitor of Vps34 enzymatic activity,significantly reduced
